The test system of data set [1] is Rattus norvegicus. Briefly: Antiphlogistic activity in Wistar rat assessed as inhibition of carrageenan-induced paw oedema at 10 mg/kg, po. The class given is functional. For orientation: Carrageenan injected into the paw causes an acute inflammation.
Data set [2] is described as follows: Antiplatelet activity against guinea pig platelet-rich plasma assessed as inhibition of ADP-induced platelet aggregation measured within 3 hrs by turbidimetric method. The class given is functional. As to conditions: Cavia porcellus.
The nature of data set [3]: Antiplatelet activity against guinea pig platelet-rich plasma assessed as inhibition of arachidonic acid-induced platelet aggregation measured within 3 hrs by turbidimetric method. It is filed as functional. The conditions noted are these: Cavia porcellus.
The subject of data set [4] is Platelet. Briefly: Antiplatelet activity against guinea pig platelet-rich plasma assessed as inhibition of U46619-induced platelet aggregation up to 500 uM measured within 3 hrs by turbidimetric method. As to conditions: Cavia porcellus. The class given is functional.
Data set [5] deals with Rattus norvegicus. Briefly: Antiphlogistic activity in Wistar rat assessed as inhibition of carrageenan-induced paw oedema at 100 mg/kg, po. The class given is functional.
In data set [6] the test system is Rattus norvegicus. Briefly: Antiphlogistic activity in Wistar rat assessed as inhibition of carrageenan-induced paw oedema at 50 mg/kg, po. It is filed as functional.
Data set [7] concerns Mus musculus. Briefly: Antinociceptive activity in Swiss mouse assessed as inhibition of acetic acid induced writhing at 100 mg/kg, po measured every 5 mins for 45 mins. It is filed as functional. In general terms: An intraperitoneal irritant provokes the stretching counted in writhing tests.
Data set [8] can be described thus: Antiplatelet activity against guinea pig platelet-rich plasma assessed as inhibition of U46619-induced platelet aggregation measured within 3 hrs by turbidimetric method. It is filed as functional. As to conditions: Cavia porcellus.
The subject of data set [9] is Rattus norvegicus. Briefly: Antiphlogistic activity in Wistar rat assessed as inhibition of carrageenan-induced paw oedema at 25 mg/kg, po. The class given is functional.
Data set [10] relates to Mus musculus. Briefly: Antinociceptive activity in Swiss mouse assessed as inhibition of acetic acid induced writhing at 50 mg/kg, po measured every 5 mins for 45 mins. It is filed as functional.
In data set [11] the test system is Platelet. Briefly: Antiplatelet activity against guinea pig platelet-rich plasma assessed as inhibition of ADP-induced platelet aggregation up to 500 uM measured within 3 hrs by turbidimetric method. The class given is functional. As to conditions: Cavia porcellus.
Data set [12] deals with Prostaglandin G/H synthase 1 (Homo sapiens) (UniProt P23219). Briefly: Inhibition of COX-1 at 1 mM.
Data set [13] relates to Mus musculus. Briefly: Antinociceptive activity in Swiss mouse assessed as inhibition of acetic acid induced writhing at 25 mg/kg, po measured every 5 mins for 45 mins. It is filed as functional.
For data set [14], the system named is Mus musculus. Briefly: Toxicity in Swiss mouse assessed as effect on spontaneous locomotion activity at 25 to 100 mg/kg, po by classic open filed test. It is filed as organism-based. Also on record: dose 25-100 mg/kg, route oral. As to conditions: in vivo.
Data set [15] deals with Mus musculus. Briefly: Toxicity in Swiss mouse assessed as sedation at 25 to 100 mg/kg, po. The class given is organism-based. Set-up: dose 25-100 mg/kg, route oral. As to conditions: in vivo.
Data set [16] has as its target T1, Prostaglandin G/H synthase 2 (Homo sapiens) (UniProt P35354).
T1 sequence (whole entry): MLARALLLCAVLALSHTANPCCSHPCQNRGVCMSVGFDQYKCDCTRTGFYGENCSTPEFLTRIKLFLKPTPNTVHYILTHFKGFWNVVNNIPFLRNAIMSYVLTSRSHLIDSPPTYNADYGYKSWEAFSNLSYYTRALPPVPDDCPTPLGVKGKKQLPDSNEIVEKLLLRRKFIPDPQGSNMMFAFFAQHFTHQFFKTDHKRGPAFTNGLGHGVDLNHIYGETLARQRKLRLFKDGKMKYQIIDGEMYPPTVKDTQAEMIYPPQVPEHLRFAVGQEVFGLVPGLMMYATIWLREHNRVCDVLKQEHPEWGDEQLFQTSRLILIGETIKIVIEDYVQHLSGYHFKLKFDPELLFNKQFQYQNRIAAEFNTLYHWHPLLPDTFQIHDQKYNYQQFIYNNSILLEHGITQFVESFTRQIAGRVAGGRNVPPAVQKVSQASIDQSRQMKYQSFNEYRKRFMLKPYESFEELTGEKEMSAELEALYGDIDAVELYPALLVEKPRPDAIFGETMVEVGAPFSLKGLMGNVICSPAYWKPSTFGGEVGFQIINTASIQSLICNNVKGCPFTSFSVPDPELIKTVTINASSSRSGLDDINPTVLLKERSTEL
Briefly: Inhibition of COX-2 at 1 mM.

Results on ten compounds are retold here after ChEMBL document CHEMBL1938325, “Synthesis of new 5,6-dihydrobenzo[h]quinazoline 2,4-diamino substituted and antiplatelet/antiphlogistic activities evaluation” (Bioorg Med Chem Lett, 2012).

As usually defined, the inhibition in vivo is the percentage by which the read-out fell short of the control. For orientation: pIC50 means −log10 of the IC50, conventionally taken in molar units.

Molecules are shown by their SMILES. pIC50: −log10 of the molar value. The source made the active and inactive calls. The calls are words filed in the database; no cut-off is given here. Some results are limits rather than exact numbers.

Sequence of Prostaglandin G/H synthase 1 (Homo sapiens) (P23219 whole entry): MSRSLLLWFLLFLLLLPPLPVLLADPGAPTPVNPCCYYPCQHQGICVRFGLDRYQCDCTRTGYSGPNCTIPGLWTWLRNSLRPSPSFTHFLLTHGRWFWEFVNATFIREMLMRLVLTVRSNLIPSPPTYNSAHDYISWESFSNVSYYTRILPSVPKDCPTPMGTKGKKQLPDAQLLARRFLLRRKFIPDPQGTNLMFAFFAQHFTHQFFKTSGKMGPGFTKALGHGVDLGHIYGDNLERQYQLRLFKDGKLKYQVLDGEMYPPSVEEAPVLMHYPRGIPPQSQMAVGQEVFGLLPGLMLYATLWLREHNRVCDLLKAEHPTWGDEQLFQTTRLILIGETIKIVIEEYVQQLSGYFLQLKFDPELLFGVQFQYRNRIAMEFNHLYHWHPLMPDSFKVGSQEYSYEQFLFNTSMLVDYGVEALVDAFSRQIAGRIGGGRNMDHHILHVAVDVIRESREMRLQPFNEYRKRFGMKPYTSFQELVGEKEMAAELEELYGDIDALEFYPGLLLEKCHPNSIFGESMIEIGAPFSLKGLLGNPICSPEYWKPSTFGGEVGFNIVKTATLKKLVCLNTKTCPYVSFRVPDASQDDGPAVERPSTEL

Regarding `COc1ccc2c(c1)c(CC(=O)O)c(C)n2C(=O)c1ccc(Cl)cc1` [INDOMETHACIN], in the data set with Rattus norvegicus [1], the inhibition in vivo at 10 mg/kg was found to be 45%.
Take `CC(=O)Oc1ccccc1C(=O)O` [ASPIRIN]: the pIC50 in data set [2] was under 3.30; in [3], 4.35. In the data set on Platelet [4], the inhibition entry is “inactive”.
In the case of `Nc1nc2c(c(N3CCCCC3)n1)CCc1ccccc1-2`, the pIC50 was 3.47 in data set [2], 4.17 in data set [3] and 3.41 in data set [8]. Moreover, the inhibition in vivo at 100 mg/kg in the data set with Rattus norvegicus [5] is 31%; with Mus musculus [7] it was 0%. Moreover, in the data set with Rattus norvegicus [6], the inhibition in vivo at 50 mg/kg came out at 41%. Moreover, the inhibition in vivo at 25 mg/kg in the data set with Rattus norvegicus [9] was found to be 0%.
`Nc1nc(NCc2ccccc2)c2c(n1)-c1ccccc1CC2`: the inhibition in vivo at 100 mg/kg in the data set on Rattus norvegicus [5] came out at 23%; in the data set with Mus musculus [7], 62%. Besides, the inhibition in vivo at 50 mg/kg with Mus musculus [10] came out at 8%. Also, the pIC50 in [3] is 3.70. For the same compound, the inhibition entry with Platelet [11] and in the data set on Platelet [4] was “inactive” each time.
`CNc1nc(Nc2ccccc2)c2c(n1)-c1ccccc1CC2`: the inhibition in vivo at 100 mg/kg with Rattus norvegicus [5] was 5%; in the data set on Mus musculus [7], 54%. Also, the inhibition in vivo at 50 mg/kg in the data set with Mus musculus [10] was determined as 0%. Further, the pIC50 in [3] is 3.98. For the same compound, the inhibition entry in the data set with Platelet [11] and with Platelet [4] was “inactive” each time.
As to `CN(C)c1nc(Nc2ccccc2)c2c(n1)-c1ccccc1CC2`, the results for the pIC50 in [2] and in data set [3] were under 3.30 and 4.34, respectively. The inhibition in vivo at 100 mg/kg turned out to be 0% in the data set on Rattus norvegicus [5] and 64% in the data set with Mus musculus [7]. The inhibition in vivo at 50 mg/kg in the data set on Mus musculus [10] was determined as 51%. The Imax in [12] turned out to be 28.7%; in data set [16], 50.7%. In addition, the inhibition in vivo at 25 mg/kg in the data set on Mus musculus [13] came to 0%. Also, the Activity entry with Mus musculus [14] and in the data set with Mus musculus [15] was “Non-toxic” throughout. Besides, the inhibition result in the data set on Platelet [4] is “inactive”.
In the case of `Nc1nc(Nc2ccccc2)c2c(n1)-c1ccccc1CC2`, the figures for the pIC50 in data set [2], in data set [3] and in data set [8] were 3.51, 4.05 and 3.69, respectively. Also, the inhibition in vivo at 100 mg/kg in the data set on Rattus norvegicus [5] turned out to be 54%; with Mus musculus [7] it was 15%. Further, the inhibition in vivo at 50 mg/kg in the data set on Rattus norvegicus [6] came out at 53%. For the same compound, the Imax in [12] stood at 50.5%; in data set [16] it was 38.6%. Also, the inhibition in vivo at 25 mg/kg in the data set on Rattus norvegicus [9] turned out to be 0%.
In the case of `Nc1nc2c(c(N3CCCC3)n1)CCc1ccccc1-2`, the pIC50 is 3.51 in data set [2] and 3.78 in [3]. In addition, the inhibition in vivo at 100 mg/kg in the data set with Rattus norvegicus [5] is 42%; in the data set on Mus musculus [7] it was 30%. The inhibition in vivo at 50 mg/kg in the data set with Rattus norvegicus [6] is 42%. Besides, the inhibition in vivo at 25 mg/kg with Rattus norvegicus [9] came to 0%. The inhibition entry with Platelet [4] was “inactive”.
With `Nc1nc2c(c(N3CCOCC3)n1)CCc1ccccc1-2`, the pIC50 in [2] was 3.47; in [3], 3.65. The inhibition in vivo at 100 mg/kg stood at 40% in the data set with Rattus norvegicus [5] and 19% in the data set with Mus musculus [7]. Also, the inhibition in vivo at 50 mg/kg in the data set on Rattus norvegicus [6] was determined as 0%. Also, the inhibition result in the data set on Platelet [4] was “inactive”.
Take `Nc1nc(NCCc2ccccc2)c2c(n1)-c1ccccc1CC2`: the inhibition in vivo at 100 mg/kg was found to be 19% with Rattus norvegicus [5] and 54% in the data set with Mus musculus [7]. For the same compound, the inhibition in vivo at 50 mg/kg in the data set with Rattus norvegicus [6] was 20%; in the data set with Mus musculus [10], 32%. The pIC50 in data set [3] is 4.05. For the same compound, the inhibition result in the data set with Platelet [11] and in the data set with Platelet [4] was “inactive” throughout.
